Legend:
[1] = Lipophilicity, log P estimated from HPLC retention times; type: physicochemical; settings: pH 7.5
Excerpt: The log P values were estimated by comparing HPLC retention times of test compounds with retention times of standards having known log P values as described.

[2] = molecular target: central benzodiazepine receptor (CBR); experiment: In vitro binding assay, central benzodiazepine receptor; settings: membranes from kidney and brain cortex; read-out: inhibition constant for the CBR
Method: (§1) […] (IC50) of CLINME for the TPSO and for the central benzodiazepine receptor (CBR) was determined as described previously. The IC50 values were converted to the inhibition constant, Ki, using Cheng-Prusoff equation.

[3] = molecular target: T1, TSPO (Rattus norvegicus, UniProt P16257); settings: competing drug 1 mg/Kg i.v. 5 min prior to tracer; rats, 30 min p.i.; vs controls
Method: The saturation effect of [^123I]-CLINME uptake was studied in competition experiments by injecting CLINME (1 mg/Kg), 5 min prior to [^123I]-CLINME (0.7 MBq, 10 pmoles in 0.1 mL of 0.9% saline), via the tail vein, to 8–10-week-old male SD rats.
The drugs were dissolved in dimethyl sulfoxide/saline (1 : 5) and injected intravenously 5 min prior to [^123I]-CLINME. Groups of rats (n = 3-4) were sacrificed by CO2 administration followed by cervical fracture 30 min after administration of [^123I]-CLINME and peripheral organs (liver, spleen, lung, heart, kidney, and adrenals), blood, olfactory bulbs, and the remainder of the brain were removed. The radioactivity concentrations were calculated as described previously. Results were analysed by one-way analysis of variance (ANOVA) followed by Tukey's post hoc test for comparing the tissue radioactivity concentrations in the treated animals (n = 3-4) and in the controls (n = 6). The criterion for significance was P < 0.05.

[4] = molecular target: T1, TSPO; experiment: In vitro binding assay, TSPO, [^3H]-PK11195; parameters: from tissue
Method: as §1

[5] = molecular target: T1, TSPO; experiment: In vitro binding assay, TSPO, [^3H]-Ro 5-4864; parameters: from tissue
Method: as §1

[6] = molecular target: T1, TSPO; experiment: In vitro autoradiography with [^125I]-CLINME on lesioned brain tissue; type: binding, SD rats; parameters: from tissue; host or cells: male Sprague-Dawley rats: peripheral organs and brain in vivo; AMPA-lesioned striatum; brain sections; settings: 20 μM drug, 16 nM [^125I]-CLINME
[7] = test system: TPSO; settings: rats, dose of 5 mg/Kg; cited from earlier work

Row | Compound | chromatographic logP [1] | Ki [2] [nM] | decrease of [^123I]-CLINME uptake in the heart [3] [%] | decrease of [^123I]-CLINME uptake in the kidney [3] [%] | decrease of [^123I]-CLINME uptake in the lungs [3] [%] | decrease of [^123I]-CLINME uptake in the olfactory bulbs [3] [%] | increase of [^123I]-CLINME uptake in the blood [3] [%] | melting point [°C] | Ki [4] [nM] | selectivity for the TPSO over the CBR ([4]; in vitro) [fold] | Ki [5] [nM] | effect of coincubation on the differential (lesioned vs contralateral) binding of [^125I]-CLINME [6] | chromatographic logP ([1]; HPLC retention times compared with standards of known log P) | block of the uptake of [^123I]-PK11195 in the adrenals [7] [%]
1 | CCN(C)C(=O)Cc1c(-c2ccc(I)cc2)nc2ccc(Cl)cn12 [CLINME, 2-(6-Chloro-2-(4-iodophenyl)imidazo[1,2-a]pyridin-3-yl)-N-ethyl-N-methylacetamide] | 3.27 | 183 ± 20 | 86 | 71 | 76 | 38 | 45 | 65 to 67 | 1.6 ± 0.2 | 110 | 4.5 ± 0.6 | eliminated |  | 
2 | CCC(C)N(C)C(=O)c1cc2ccccc2c(-c2ccccc2Cl)n1 (centres unmarked) [PK11195] |  |  | 87 | 72 | 81 | 36 | 29 |  |  |  |  | eliminated | 3.35 | 85
